In this test the test system is serum growth hormone (GH). The test can be described thus: Phase 1 study Part 1: PD, serum GH concentration. As to conditions: for serum GH concentration, peak, mean (SD): 1 h post-dose; for serum GH concentration, mean (SD): pre-dose. It is filed as in vivo, human. From the text:
• Part 1: To evaluate PD (GH response) of the new LUM-201 formulation as capsule (test). • Part 2: To measure PD (GH response) to LUM-201 administered as capsule (test) in fasted versus fed state. PD Results (pt 1): Individual serum growth hormone (GH) concentration time data were obtained for each subject and treatment cohort. […] Following the administration of LUM-201, the serum GH concentration values increased post dose as expected. At pre-dose, mean (SD) serum GH concentration values were 0.2970 (0.7404) ng/mL for Treatment A, 0.2052 (0.3174) ng/mL for Treatment B, 0.5303 (1.354) ng/mL for Treatment C, and 0.1454 (0.1981) ng/mL for Treatment D. The serum GH concentration value peaked at 1 h post-dose for all treatment groups. 17.10 (15.07) ng/mL in Treatment A, 16.55 (16.36) ng/mL in Treatment B, 17.30 (17.05) ng/mL in Treatment C, and 18.01 (14.32) ng/mL in Treatment D. The trend of serum GH concentration changes in all 4 treatment groups was similar, except for the serum GH concentration in Treatment A that approached the peak concentration sooner, relative to the other treatments, at 0.5 h post-dose.

Setting [1] is: Part 1, Treatment A: five 18 mg tablets (90 mg), fasted.
[2] abbreviates: Part 1, Treatment B: 85.3 mg whole capsule, fasted.
Setting [3] is: Part 1, Treatment C: 85.3 mg capsule contents (dry), fasted.
The mark [4] stands for this setting: Part 1, Treatment D: 85.3 mg capsule contents in banana puree.

With `CC(C)(N)C(=O)N[C@H](COCc1ccccc1)C(=O)N1CCC2(CC1)CN(S(C)(=O)=O)c1ccccc12` [LUM-201, N-[1(R)-[(1,2-dihydro-1-methanesulfonylspiro[3H-indole-3,4′-piperdin]-yl)carbonyl]-2-(phenylmethyloxy)ethyl]-2-amino-2-methylpropanamide methanesulfonate], the “serum GH concentration, peak, mean (SD)” value runs as follows: under setting [1], 17.10 (15.07) ng/mL; under setting [2], 16.55 (16.36) ng/mL; under setting [3], 17.30 (17.05) ng/mL; under setting [4], 18.01 (14.32) ng/mL. Where the note is “Part 1, serum GH and serum IGF-1, 4 treatment groups”, the “PD parameters, capsule versus tablets” value was “no observed differences”. For the same molecule, the “serum GH concentration, mean (SD)” value under setting [1] is given as 0.2970 (0.7404) ng/mL; the “serum GH concentration, mean (SD)” value under setting [2] is reported as 0.2052 (0.3174) ng/mL; the “serum GH concentration, mean (SD)” value under setting [3] is on record as 0.5303 (1.354) ng/mL; the “serum GH concentration, mean (SD)” value under setting [4] was 0.1454 (0.1981) ng/mL.

These data come from patent US20250332149A1, “PIPERIDINE COMPOUNDS AND PHARMACEUTICAL COMPOSITIONS” (Lumos Pharma, Inc., priority 2024, published 2025).
